Data from patent US20050004167A1, “Branched chain amino acid-dependent aminotransferase inhibitors and their use in the treatment of neurodegenerative diseases” (WARNER-LAMBERT COMPANY LLC, priority 2001, published 2005).
“And” between values parts separate entries of the source, which are not always exact repeats. Equal values may be shown once.

How the values were obtained:
[1] = target: T1, human Branched Chain Amino Acid Aminotransferase cytosolic form (hBCATc) (Homo sapiens, UniProt P54687); experiment: In vitro coupled enzyme assay (glutamate dehydrogenase, NADH formation), human BCATc; format: biochemical; settings: recombinant human BCATc, 37° C., 25 mM phosphate buffer pH 7.8; several values in a cell = repeat determinations; read-out: RhBCATc
T1 construct: made in house; host or cells: E. coli BL21(DE3)
T1 sequence (P54687 1-386): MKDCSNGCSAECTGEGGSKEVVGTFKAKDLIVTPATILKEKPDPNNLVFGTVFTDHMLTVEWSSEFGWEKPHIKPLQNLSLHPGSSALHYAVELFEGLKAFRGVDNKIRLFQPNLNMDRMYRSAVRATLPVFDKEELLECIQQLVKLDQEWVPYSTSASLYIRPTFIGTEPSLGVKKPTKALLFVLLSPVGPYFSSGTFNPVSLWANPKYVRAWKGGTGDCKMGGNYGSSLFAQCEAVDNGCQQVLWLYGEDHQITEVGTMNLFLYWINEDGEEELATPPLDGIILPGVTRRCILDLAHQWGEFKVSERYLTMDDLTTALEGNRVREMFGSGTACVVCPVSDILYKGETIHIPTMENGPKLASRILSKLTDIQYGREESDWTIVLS
Summary of the method: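 At 37 °C in 25 mM phosphate pH 7.8 with 2 mM DTT, 1.25 μg His-tag-purified E. coli-expressed BCAT transaminated 750 μM L-leucine with 500 μM α-ketoglutarate and 10 μM PLP. Glutamate was coupled via glutamate dehydrogenase (1 mM NAD+, 4 mM ADP) to NADH formation at 340 nm. Compounds were added in DMSO up to 5% v/v.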

rat BCAT cytosolic form = target: T2, rat BCAT cytosolic form (Rattus norvegicus, UniProt P54690); experiment: In vitro coupled enzyme assay (glutamate dehydrogenase, NADH formation), rat BCATc; format: biochemical; settings: recombinant rat BCATc, 37° C., 25 mM phosphate buffer pH 7.8; several values in a cell = repeat determinations; read-out: RrBCATc
T2 construct: made in house; host or cells: E. coli BL21(DE3)
T2 sequence (P54690 1-411): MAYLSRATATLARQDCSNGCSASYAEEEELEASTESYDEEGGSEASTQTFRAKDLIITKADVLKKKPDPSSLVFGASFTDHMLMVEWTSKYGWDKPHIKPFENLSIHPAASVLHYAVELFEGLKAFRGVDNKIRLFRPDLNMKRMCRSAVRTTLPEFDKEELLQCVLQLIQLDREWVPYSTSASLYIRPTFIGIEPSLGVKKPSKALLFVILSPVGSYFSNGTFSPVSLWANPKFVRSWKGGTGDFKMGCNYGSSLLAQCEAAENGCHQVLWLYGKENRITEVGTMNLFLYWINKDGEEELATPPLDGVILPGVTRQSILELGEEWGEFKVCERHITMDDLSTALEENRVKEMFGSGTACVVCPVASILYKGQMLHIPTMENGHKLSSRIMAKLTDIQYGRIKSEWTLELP
Description: In vitro enzyme assay—human Branched Chain Amino Acid Aminotransferase cytosolic form (hBCATc) and mitochondrial form (hBCATm) as well as rat BCAT cytosolic form were assayed at 37° C. in 25 mM phosphate buffer pH 7.8. In addition, 2 mM DTT and 12.5 mM […] were added to the assay mixture. A coupling enzyme assay was used to monitor the production of glutamate. The formation of NADH from NAD+ at […] was followed on a 96-well plate Molecular Devices plate reader.
The following components were used in this coupled assay: 4 mM ADP, 1 mM NAD+, 750 μM L-Leucine, 500 μM α-ketoglutarate, 10 μM pyridoxal phosphate, 1 unit glutamate dehydrogenase, and 1.25 μg of the appropriate BCAT enzyme. Inhibitions by compounds were assayed by adding various concentrations to this coupled assay procedure as a DMSO stock up to a 5% v/v DMSO/buffer ratio.
Enzyme Preparation—humanBCATc and ratBCATc were expressed in BL21(DE3) cells. A growing culture of cells was induced with 1 mM IPTG at room temperature overnight. These cells were harvested by centrifugation at 10,000 g for 20 minutes. The supernatant was discarded, and the cells were stored at −80° C. until needed. The protein was purified by the following method. The cell paste was resuspended in extraction buffer (0.1 M phosphate, pH 8.0, with 0.01 M Tris-HCL and 5 mM TCEP and then lysed on a French Press at 1000 psi. The lysate was centrifuged at 10,000 g for 15 minutes, and the pellet was discarded. The supernatant was loaded onto a Hitrap Chelating column previously charged with 0.1 M NiSO4 and washed with 3 to 4 column volumes of extraction buffer. The column was then washed with 0.01 Tris, pH 7.5, 10% glycerol, 150 mM NaCl, 5 mM TCEP for two column volumes. The column was then further washed with two column volumes of 0.1 M phosphate, pH 6.0, 0.01 M Tris, 10% glycerol and 750 mM NaCl. Finally, the column was washed with two column volumes of the same buffer plus 50 mM imidazole. The BCAT enzyme was then eluted with the same buffer but with 350 mM imidazole. The eluant was then dialyzed overnight against 10 mM phosphate buffer pH 8.0, 10% glycerol, and 5 mM TCEP. The dialyzed protein was then loaded onto a Q-sepharose column and eluted using a salt gradient. Active fractions were collected and further purified on a Superose-12 column to yield pure BCAT protein.

Compound	IC50 [1]	IC50 (rat BCAT cytosolic form) [µM]
Cc1ccc(S(=O)(=O)NNC(=O)c2ccc3oc4ccccc4c3c2)cc1[N+](=O)[O-] [Example 96, 2-Dibenzofurancarboxylic acid, 2-[(4-methyl-3-nitrophenyl)sulfonyl]hydrazide]	51.6 µM	36.3
COc1cc(OC)c2cc(C(=O)NNS(=O)(=O)c3ccccc3)oc2c1 [Example 60, 2-Benzofurancarboxylic acid, 4,6-dimethoxy-, 2-(phenylsulfonyl)hydrazide]	21.1 µM and 12.8 µM	0.11
O=C(NNS(=O)(=O)c1ccccc1)c1ccc2c(c1)OCO2 [Example 10, Benzo[1,3]dioxole-5-carboxylic acid 2-(phenylsulfonyl)hydrazide]	65.6 µM	2.9
O=C(NNS(=O)(=O)c1cc(C(F)(F)F)ccc1Cl)c1ccc2oc3ccccc3c2c1 [Example 97]	67.5 µM	36.4
COc1c(C(=O)NNS(=O)(=O)c2ccccc2C(F)(F)F)oc2c(OC)cccc12 [Example 62, 2-Benzofurancarboxylic acid, 3,7-dimethoxy-, 2-[(2-trifluoromethylphenyl)-sulfonyl]hydrazide]	4.77 µM	0.33
Cc1ccc2oc(C(=O)NNS(=O)(=O)c3ccccc3)cc2c1 [Example 77, Benzofurancarboxylic acid, 5-methyl-, 2-(phenylsulfonyl)hydrazide]	6.15 µM and 3 µM	0.35
Cc1ccc2oc(C(=O)NNS(=O)(=O)c3ccccc3C)cc2c1 [Example 81, 2-Benzofurancarboxylic acid, 5-methyl-, 2-[2-(methylphenyl)sulfonyl]hydrazide]	1.74 µM	0.31
COc1ccc(Br)cc1S(=O)(=O)NNC(=O)c1cc2cccc(OC)c2o1 [Example 107, 2-Benzofurancarboxylic acid, 7-methoxy-, 2-[(5-bromo-2-methoxyphenyl)-sulfonyl]hydrazide]	41 µM	7.5
O=C(NNS(=O)(=O)c1cccc(F)c1)c1ccc2ccccc2c1 [Example 119, 2-Naphthalenecarboxylic acid, 2-[(3-fluorophenyl)sulfonyl]hydrazide]	12.7 µM	2.2
O=C(NNS(=O)(=O)c1ccccc1)c1ccc2oc3ccccc3c2c1 [Example 1, Dibenzofuran-2-carboxylic acid 2-(phenylsulfonyl)hydrazide]	2.9 µM and 1.4 µM	0.18
Cc1ccc2oc(C(=O)NNS(=O)(=O)c3cccc(Br)c3)cc2c1 [Example 83, 2-Benzofurancarboxylic acid, 5-methyl-, 2-[3-(bromophenyl)sulfonyl]hydrazide]	9.66 µM	0.87
COc1ccc2oc(C(=O)NNS(=O)(=O)c3ccccc3)cc2c1 [Example 4, 5-Methoxy-2-benzofurancarboylic acid 2-(phenylsulfonyl)hydrazide]	12.9 µM	1.22
O=C(NNS(=O)(=O)c1ccccc1)c1cc2cccc(Cl)c2o1 [Example 7, 7-Chloro-benzofuran-2-carboxylic acid 2-(phenylsulfonyl)hydrazide]	11.5 µM	0.59
CCOc1cccc2cc(C(=O)NNS(=O)(=O)c3ccccc3)oc12 [Example 6, 7-Ethoxy-2-benzofurancarboxylic acid 2-(phenylsulfonyl)hydrazide]	12.9 µM	0.66
COc1cccc2cc(C(=O)NNS(=O)(=O)c3ccc(F)c(Cl)c3)oc12 [Example 105, 2-Benzofurancarboxylic acid, 7-methoxy-, 2-[(3-chloro-4-fluorophenyl)sulfonyl]-hydrazide]	54 µM	3.3
O=C(NNS(=O)(=O)c1ccccc1)c1cc2ccccc2o1 [Example 146, Benzofuran-2-carboxylic acid 2-(phenylsulfonyl)hydrazide]	17.8 µM	2.5
O=C(NNS(=O)(=O)c1ccccc1)c1cc2cc([N+](=O)[O-])ccc2o1 [Example 34, 2-Benzofurancarboxylic acid, 5-nitro-, 2-(phenylsulfonyl)hydrazide]	5.1 µM	0.33
O=C(NNS(=O)(=O)c1ccccc1F)c1ccc2oc3ccccc3c2c1 [Example 92, 2-Dibenzofurancarboxylic acid, 2-[(2-fluorophenyl)sulfonyl]hydrazide]	12.1 µM	1.1
CCCCCc1ccc(S(=O)(=O)NNC(=O)c2cnc3ccccc3c2)cc1 [Example 122, 3-Quinolinecarboxylic acid, 2-[(4-pentylphenyl)sulfonyl)hydrazide]	58 µM	56.7
O=C(NNS(=O)(=O)c1ccccc1OC(F)(F)F)c1cnc2ccccc2c1 [Example 126, 3-Quinolinecarboxylic acid, 2-[[2-(trifluoromethoxy)phenyl]sulfonyl]hydrazide]	36.2 µM	12.5
Cc1cccc(S(=O)(=O)NNC(=O)c2cnc3ccccc3c2)c1 [Example 125, 3-Quinolinecarboxylic acid, 2-[(3-methylphenyl)sulfonyl]hydrazide]	18.4 µM	2.4
Cc1cccc2oc(C(=O)NNS(=O)(=O)c3ccccc3)cc12 [Example 87, 2-Benzofurancarboxylic acid, 4-methyl-, 2-(phenylsulfonyl)hydrazide]	41.1 µM	1.16
Cc1ccc(S(=O)(=O)NNC(=O)c2ccc3ccccc3c2)cc1 [Example 112, 2-Naphthalenecarboxylic acid, 2-[(4-methylphenyl)sulfonyl]hydrazide]	14.6 µM	6.2
Cc1cccc2cc(C(=O)NNS(=O)(=O)c3ccccc3)oc12 [Example 86, 2-Benzofurancarboxylic acid, 7-methyl-, 2-(phenylsulfonyl)hydrazide]	15.2 µM	0.24
COc1cccc2cc(C(=O)NNS(=O)(=O)c3cccc(Cl)c3Cl)oc12 [Example 104, 2-Benzofurancarboxylic acid, 7-methoxy-, 2-[(2,3-dichlorophenyl)sulfonyl]-hydrazide]	23 µM	1.4
Nc1ccc2oc(C(=O)NNS(=O)(=O)c3ccccc3)cc2c1 [Example 91, 2-Benzofurancarboxylic acid, 5-amino-, 2-(phenylsulfonyl)hydrazide]	19.6 µM	0.11
Cc1c(C(=O)NNS(=O)(=O)c2ccccc2)oc2ccccc12 [Example 88, 2-Benzofurancarboxylic acid, 3-methyl-, 2-(phenylsulfonyl)hydrazide]	40 µM	4
CCc1ccc(S(=O)(=O)NNC(=O)c2ccc3ccccc3c2)cc1 [Example 121, 2-Naphthalenecarboxylic acid, 2-[(4-ethylphenyl)sulfonyl]hydrazide]	55 µM	11.6
